Assay results from patent publication US20120065126A1, “Pharmaceutical Compositions Containing Antifungal Peptides” (BASF SE, priority 2009, published 2012).
Read-outs that look alike come from different tables or passages of the source.

Key:
[1] = test system: Malassezia furfur strain DSM 6170; experiment: Long-term stability of P18 solution, growth test (CFU); assay type: cell-based
Protocol: (§1) The studies described hereinafter were conducted on the Malassezia furfur strain DSM 6170.
Since storage may be necessary over a prolonged period, a 1 mM P18 peptide solution (P18 sequence H-KWKLFKKIPKFLHLAKKF-NH2) was subsequently stored at 37° C. over 12 weeks, and the antifungal activity of the stored solution on Malassezia furfur was compared with the activity of a freshly made up 1 mM P18 peptide solution. This was done using a growth test, which was conducted as follows:
Growth medium: M472 Pityrosporum medium according to DSMZ 40 g/1 malt extract 20 g/l ox bile
(§2) The growth test was effected as follows: a shake culture containing M472 Pityrosporum medium was inoculated with M. furfur and incubated with shaking at 30° C. and 200 rpm overnight.
A 96-well microtiter plate was filled with 100 μl per well of M472 Pityrosporum medium and inoculated with M. furfur suspension from the overnight culture. The M. furfur suspension was adjusted at the start of the experiment to an optical density, measured at 600 nm, of 0.02. The concentrates of the inhibitor solutions were 1 mM in water.
The following growth was compared: • M. furfur suspension without addition of an inhibitor • M. furfur suspension and addition of an aqueous fresh P18 solution with a final concentration of 50 μM • M. furfur suspension and addition of an aqueous fresh P18 solution with a final concentration of 25 μM • M. furfur suspension and addition of a P18 solution which had been stored at 37° C. for 12 weeks with a final concentration of 50 μM • M. furfur suspension and addition of a P18 solution which had been stored at 37° C. for 12 weeks with a final concentration of 25 μM
(§3) The microtiter plate was incubated with shaking at 30° C.
The growth was observed by measuring the optical density over 24 hours. Subsequently, the colony forming units (CFU) were determined by streaking 1 μl and 5 μl of each of the suspensions and, after incubation over 6 days, counting the colonies. The CFU was determined in order to rule out any influence of the biphasic medium, and also the growth form of M. furfur, on the optical density. The experiments were conducted at least in triple determinations.

M. furfur = assay type: cell-based, Malassezia furfur; conditions: shampoo base formulation 31-3 present
Protocol: as §1
The minimum inhibitory concentration (MIC) of peptide P18 (H-KWKLFKKIPKFLHLAKKF-NH2; carboxyl terminus amidated) in the presence of shampoo base formulation 31-3 (Table 10) was tested in the following manner: […]
To prepare the shampoo base formulation, the Texapon NSO and Tego Betain L7 components were mixed and dissolved. NaOH was used to adjust the pH to pH 6-7.
as §2
A 96-well microtiter plate was filled with 170 μl per well of M472 Pityrosporum medium and inoculated with 10 μl of M. furfur suspension from an overnight culture. This corresponded to an optical density of 0.02-0.1, measured at 620 nm. 20 μl of shampoo base formulation 31-3 were added to this mixture. Peptide P18 was dissolved with a concentration of 10 mM in DMSO.
as §3
After incubation for 24 hours, the colony forming units (CFU) were determined by resuspending 1 μl of each of the suspensions in 10 μl of medium, and then streaking them. After incubation over the course of 6 days, the colonies on the plate were counted. The experiment was conducted in double determination.

M. furfur DSM 6170 = experiment: Comparison of the efficacy of P18 and AFPP in a shampoo formulation (CFU); assay type: cell-based, Malassezia furfur; conditions: 1:10 with culture medium
Protocol: In order to study the efficacy of AFPP compared to P18 (SEQ ID NO. 3; sequence: KWKLFKKIPKFLHLAKKF-NH2 (Bachem AG, Switzerland)) in a shampoo formulation, the experiment described in Example 24 was repeated with a shampoo formulation.
Both peptides were present as 2% (w/w) solutions in phosphate buffer (10 mM sodium phosphate, pH 7.5, 100 mM NaCl).
Peptide solution with a final concentration of 0.1% and 0.2% was added to the shampoo formulation. The resulting formulations were stirred over 16 hours in order to obtain homogeneous solutions. The same procedure was repeated with equivalent volumes of the phosphate buffer in order to rule out any influence of the phosphate buffer on the test results.
The growth test was effected as follows: a shake culture containing M472 Pityrosporum medium was inoculated with M. furfur DSM 6170 (DSMZ) and incubated with shaking at 30° C. and 200 rpm overnight.
For each test mixture, a 1.5 ml reaction vessel was filled with Pityrosporum medium and inoculated with the M. furfur overnight culture to give a start OD of 0.1, measured at 600 nm.
The growth of the following test mixtures was monitored: • M. furfur suspension and addition of phosphate buffer in shampoo formulation in an equivalent amount to the volumes which were added with peptide-shampoo solution (in order to rule out any influence of the phosphate buffer on the effect of the active peptides at concentrations in the shampoo formulation of 0.1% or 0.2%) • M. furfur suspension and shampoo formulation with a P18 concentration of 0.1% • M. furfur suspension and shampoo formulation with a P18 concentration of 0.2% • M. furfur suspension and shampoo formulation with an AFPP concentration of 0.1% • M. furfur suspension and shampoo formulation with a final AFPP concentration of 0.2%
The ratio of the shampoo formulation to the M. furfur culture medium was 1:10 in all test mixtures (shampoo formulation: M. furfur culture medium). The reaction volume was 1 ml.
The growth of M. furfur in the test mixtures was observed over a period of 20 minutes. For this purpose, the mixtures were diluted in M472 medium in a ratio of 1:10 after 10 minutes and 20 minutes, and then 10 μl were plated out. The CFU (colony forming units) were determined by counting after incubation at 30° C. for 6 days.
The experiments were effected in double determination and were independently repeated at least once.

H-KWKLFKKIPKFLHLAKKF-NH2 [P18, H-KWKLFKKIPKFLHLAKKF-NH2]
Effect of storage on the activity of the solution ([1]; 1 mM P18 peptide solution, 37° C., 12 weeks): has not affected the activity | Colony forming units (CFU) ([1]; aqueous P18 solution (fresh), final conc. 25 μM, incubation 16-18 h): 5 ± 8 CFU | Colony forming units (CFU) ([1]; aqueous P18 solution (fresh), final conc. 25 μM, incubation 24 h): 1 ± 2 CFU | Colony forming units (CFU) ([1]; aqueous P18 solution (fresh), final conc. 50 μM, incubation 16-18 h): 0 ± 0 CFU | Colony forming units (CFU) ([1]; aqueous P18 solution (fresh), final conc. 50 μM, incubation 24 h): 1 ± 1 CFU | Colony forming units (CFU) ([1]; aqueous P18 solution stored at 37° C. for 12 weeks, final conc. 25 μM, incubation 16-18 h): 6 ± 7 CFU | Colony forming units (CFU) ([1]; aqueous P18 solution stored at 37° C. for 12 weeks, final conc. 25 μM, incubation 24 h): 5 ± 5 CFU | Colony forming units (CFU) ([1]; aqueous P18 solution stored at 37° C. for 12 weeks, final conc. 50 μM, incubation 16-18 h): 0 ± 0 CFU | Colony forming units (CFU) ([1]; aqueous P18 solution stored at 37° C. for 12 weeks, final conc. 50 μM, incubation 24 h): 1 ± 1 CFU | Colony forming units (CFU) after incubation time of 24 hours (M. furfur; P18 25 μM): 80 CFU | Colony forming units (CFU) after incubation time of 24 hours (M. furfur; P18 50 μM): 32 CFU | Colony forming units (CFU) after incubation time of 24 hours (M. furfur; P18 100 μM): 0 CFU | Colony forming units (CFU) after incubation time of 24 hours (M. furfur; P18 200 μM): 0 CFU | Colony forming units (CFU) after incubation time of 24 hours (M. furfur; P18 300 μM): 0 CFU | Colony forming units (CFU) after incubation time of 24 hours (M. furfur; P18 400 μM): 0 CFU | Colony forming units (CFU) after incubation time of 24 hours (M. furfur; P18 500 μM): 0 CFU | Colony forming units after the incubation time specified (M. furfur DSM 6170; 0.1% in the shampoo formulation, 10 minutes): 80 ± 10 CFU | Colony forming units after the incubation time specified (M. furfur DSM 6170; 0.1% in the shampoo formulation, 20 minutes): 38 ± 21 CFU | Colony forming units after the incubation time specified (M. furfur DSM 6170; 0.2% in the shampoo formulation, 10 minutes): 21 ± 17 CFU | Colony forming units after the incubation time specified (M. furfur DSM 6170; 0.2% in the shampoo formulation, 20 minutes): 3 ± 1 CFU
